Reference: patent publication US20060040871A1, “Bacterial transforming agent” (priority 2003, published 2006)
Like-named read-outs stand apart in the source and are kept apart here.

Experiments:
[1] = tested on: MRSA; assay: Screening on Isosensitest agar with incorporated BTA and 10 μg methicillin discs; type: cell-based, Staphylococcus aureus; settings: VRE and MRSA
Description: To find substances related to GBE that might have increased potency, various substances, including those with additional glycine moieties and benzylates, have been screened. Screening was carried out using Isosensitest agar (Oxoid, UK) into which various levels of potential BTAs were incorporated at levels between 0.01 and 1.0%. The agar with incorporated BTA was then used in the manner of a standard antibiotic sensitivity test using 10 μg methicillin discs. The test organism was inoculated onto the agar surface at a concentration suitable to achieve confluent growth after 18 hours incubation at 30° C. After incubation, zone diameters were compared with that achieved by the control plate (Isosensitest alone) for each test organism.

[2] = tested on: vancomycin- and gentamicin-resistant Enterococcus faecium; assay: microbe, parasite or virus in culture; type: cell-based; settings: for MIC of vancomycin: GBE 0.02M
From the text: The agents of the present invention are not limited to the reversal of resistance in Staphylococcus. The test strains in Table 5 are patient-isolates of vancomycin- and gentamicin-resistant Enterococcus faecium. At the time of isolation, they were commonly resistant to all clinically useable antimicrobial agents.

[3] = tested on: MRSA; type: cell-based, Staphylococcus aureus; settings: agents not hydrolysed by staphylococcal β-lactamase
[4] = tested on: MRSA; assay: MIC of methicillin for MRSA isolates grown with glycine or GBE (Table 1); type: cell-based, Staphylococcus aureus; settings: for MIC of methicillin: GBE 0.001M (0.2%)
[5] = tested on: MRSA; type: cell-based, Staphylococcus aureus; settings: GBE 0.00075M [0.15%]
From the text: Stored frozen plasma was pooled from five subjects.
Human plasma may bind or otherwise inactivate foreign substances and good activity in plasma is indicative of good in vivo activity.

NCC(=O)OCc1ccccc1 [GBE, Glycine Benzyl Ester]
activity against VRE and MRSA relative to glycylglycine benzyl ester [1]: greater activity
strains tested with complete transformation (target MIC of vancomycin 2 mg/l) ([2]; 0.02 M GBE, Table 5): 100%
MIC of vancomycin ([2]; ATCC 29212): 1 µg/mL
MIC of vancomycin ([2]; BBC): 2 µg/mL
MIC of vancomycin ([2]; E254): 2 µg/mL
MIC of vancomycin ([2]; E267): 2 µg/mL
MIC of vancomycin ([2]; E271): 2 µg/mL
MIC of vancomycin ([2]; E285): 2 µg/mL
MIC of vancomycin ([2]; E297): 2 µg/mL
MIC of vancomycin ([2]; GBC): 2 µg/mL
MIC of vancomycin ([2]; S226): 2 µg/mL
MIC of vancomycin ([2]; S227): 2 µg/mL
MIC of vancomycin ([2]; S283): 2 µg/mL
MIC of vancomycin ([2]; S302): 2 µg/mL
MIC of vancomycin ([2]; S315): 1 µg/mL
MIC of vancomycin ([2]; S317): 2 µg/mL
MIC of vancomycin ([2]; S319): 2 µg/mL
MIC of vancomycin ([2]; S333): 2 µg/mL
MIC of vancomycin ([2]; S337): 2 µg/mL
MIC of vancomycin ([2]; S393): 2 µg/mL
MIC of vancomycin ([2]; S497): 1 µg/mL
MIC of vancomycin ([2]; S556): 1 µg/mL
MIC of vancomycin ([2]; WBC): 2 µg/mL
sensitivity of MRSA to other β-lactam agents in the presence of GBE [3]: sensitive to cephalosporins and other β-lactam agents
strains tested with complete transformation ([4]; 0.02 M glycylbenzyl ester, said of Table 1): 100%
MIC of methicillin ([4]; CD40 (EMRSA-1)): 2 µg/mL
MIC of methicillin ([4]; DS09 (EMRSA-1)): 2 µg/mL
MIC of methicillin ([4]; E15-97 (EMRSA-15)): 2 µg/mL
MIC of methicillin ([4]; E16-96 (EMRSA-16)): 2 µg/mL
MIC of methicillin ([4]; JF1-32 (EMRSA-1)): 2 µg/mL
MIC of methicillin ([4]; L265): 2 µg/mL
MIC of methicillin ([4]; L266): 2 µg/mL
MIC of methicillin ([4]; L267): 2 µg/mL
MIC of methicillin ([4]; L268): 2 µg/mL
MIC of methicillin ([4]; L269): 1 µg/mL
MIC of methicillin ([4]; L270): 1 µg/mL
MIC of methicillin ([4]; L271): 2 µg/mL
MIC of methicillin ([4]; L272): 1 µg/mL
MIC of methicillin ([4]; L273): 1 µg/mL
MIC of methicillin ([4]; L274): 2 µg/mL
MIC of methicillin ([4]; L275): 2 µg/mL
MIC of methicillin ([4]; L276): 2 µg/mL
MIC of methicillin ([4]; L277): 2 µg/mL
MIC of methicillin ([4]; L278): 4 µg/mL
MIC of methicillin ([4]; L279): 2 µg/mL
MIC of methicillin ([4]; L280): 2 µg/mL
MIC of methicillin ([4]; L281): 2 µg/mL
MIC of methicillin ([4]; L282): 2 µg/mL
MIC of methicillin ([4]; L283): 2 µg/mL
MIC of methicillin ([4]; L284): 2 µg/mL
MIC of methicillin ([4]; L285): 2 µg/mL
MIC of methicillin ([4]; L286): 2 µg/mL
MIC of methicillin ([4]; L287): 2 µg/mL
MIC of methicillin ([4]; L288): 2 µg/mL
MIC of methicillin ([4]; L289): 2 µg/mL
MIC of methicillin ([4]; L290): 2 µg/mL
MIC of methicillin ([4]; L291): 2 µg/mL
MIC of methicillin ([4]; L292): 2 µg/mL
MIC of methicillin ([4]; L293): 2 µg/mL
MIC of methicillin ([4]; L294): 2 µg/mL
MIC of methicillin ([4]; MC01 (EMRSA-1)): 2 µg/mL
MIC of methicillin ([4]; NCTC 12493): 0.015 µg/mL
MIC of methicillin ([4]; PS3-32 (EMRSA-1)): 2 µg/mL
MIC of methicillin ([4]; SN31 (EMRSA-1)): 2 µg/mL
MIC of methicillin ([4]; ST11 (EMRSA-1)): 2 µg/mL
MIC of methicillin ([4]; SW2-32 (EMRSA-1)): 2 µg/mL
effect on sensitivity to methicillin compared with glycine ([4]; Table 1): increased sensitivity to methicillin to a much greater extent than glycine
MIC of methicillin ([5]; 5518 (EMRSA-1), +1% human plasma): 4 µg/mL
MIC of methicillin ([5]; 5518 (EMRSA-1), no plasma): 2 µg/mL
MIC of methicillin ([5]; L277, +1% human plasma): 8 µg/mL
MIC of methicillin ([5]; L277, no plasma): 4 µg/mL
MIC of methicillin ([5]; L278, +1% human plasma): 16 µg/mL
MIC of methicillin ([5]; L278, no plasma): 8 µg/mL
MIC of methicillin ([5]; L279, +1% human plasma): 16 µg/mL
MIC of methicillin ([5]; L279, no plasma): 4 µg/mL
MIC of methicillin ([5]; L280, +1% human plasma): 8 µg/mL
MIC of methicillin ([5]; L280, no plasma): 4 µg/mL
MIC of methicillin ([5]; L281, +1% human plasma): 8 µg/mL
MIC of methicillin ([5]; L281, no plasma): 4 µg/mL
MIC of methicillin ([5]; L282, +1% human plasma): 16 µg/mL
MIC of methicillin ([5]; L282, no plasma): 4 µg/mL
MIC of methicillin ([5]; L283, +1% human plasma): 16 µg/mL
MIC of methicillin ([5]; L283, no plasma): 4 µg/mL
MIC of methicillin ([5]; L284, +1% human plasma): 8 µg/mL
MIC of methicillin ([5]; L284, no plasma): 2 µg/mL
MIC of methicillin ([5]; L285, +1% human plasma): 16 µg/mL
MIC of methicillin ([5]; L285, no plasma): 4 µg/mL
MIC of methicillin ([5]; L286, +1% human plasma): 8 µg/mL
MIC of methicillin ([5]; L286, no plasma): 4 µg/mL
MIC of methicillin ([5]; L287, +1% human plasma): 16 µg/mL
MIC of methicillin ([5]; L287, no plasma): 4 µg/mL
MIC of methicillin ([5]; L288, +1% human plasma): 16 µg/mL
MIC of methicillin ([5]; L288, no plasma): 2 µg/mL
MIC of methicillin ([5]; L289, +1% human plasma): 16 µg/mL
MIC of methicillin ([5]; L289, no plasma): 4 µg/mL
MIC of methicillin ([5]; L290, +1% human plasma): 8 µg/mL
MIC of methicillin ([5]; L290, no plasma): 4 µg/mL
MIC of methicillin ([5]; L291, +1% human plasma): 16 µg/mL
MIC of methicillin ([5]; L291, no plasma): 4 µg/mL
MIC of methicillin ([5]; L292, +1% human plasma): 32 µg/mL
MIC of methicillin ([5]; L292, no plasma): 4 µg/mL
MIC of methicillin ([5]; L293, +1% human plasma): 8 µg/mL
MIC of methicillin ([5]; L293, no plasma): 2 µg/mL
MIC of methicillin ([5]; L294, +1% human plasma): 8 µg/mL
MIC of methicillin ([5]; L294, no plasma): 2 µg/mL
